Earlier results, collected in US4916151A, “Method of treating parkinson's syndrome” (Merrell Dow Pharmaceuticals Inc., priority 1989, dated 1990).

What was measured:
MAO = details: literature; selectivity lost as dosage is increased
depression = details: literature reports
[1] = literature

Row | Structure (SMILES) | preferential inhibition of MAO-A or MAO-B (MAO) | clinical antidepressant effect (depression) | potentiation of L-dopa for treatment of Parkinson's disease [1]
1 | C#CCN(C)Cc1ccccc1 [pargyline] | MAO-B is preferentially inhibited | clinically effective antidepressant agents | –
2 | C#CCN(C)CCCOc1ccc(Cl)cc1Cl [clorgyline] | – | clinically effective antidepressant agents | –
3 | NNCCc1ccccc1 [phenelzine] | not preferential in their action upon MAO | – | –
4 | C#CCN(C)[C@H](C)Cc1ccccc1 [L-deprenyl] | MAO-B is preferentially inhibited | clinically effective antidepressant agents | potentiate L-dopa for the treatment of Parkinson's disease without producing peripheral side effects
5 | N[C@@H]1C[C@H]1c1ccccc1 (relative stereo) [tranylcypromine] | not preferential in their action upon MAO | – | –
6 | Cc1cc(C(=O)NNCc2ccccc2)no1 [isocarboxazid] | not preferential in their action upon MAO | – | –
